Data: patent US20240189318A1, “THERAPEUTIC REGIMENS OF AN INHIBITOR OF THE ENZYMATIC ACTIVITY OF BRG1 AND BRM” (FOGHORN THERAPEUTICS INC., priority 2021, published 2024)
Like-named read-outs stand apart in the source and are kept apart here.

What was measured:
CYP3A4/5 = experiment: CYP enzyme inhibition in pooled human liver microsomes, CYP3A4/5; settings: for inhibition at 10 µM / inhibition at 30 µM: Enzyme activity (% inhibition), CYP3A4/5
P-gp = target: T1, P-gp (Homo sapiens, UniProt P08183); experiment: Transporter inhibition in MDCK-II cells, P-gp; type: in vitro ADME; settings: for IC50: probe quinidine 0.1 μM
T1 construct: expressed in transfected cells; host or cells: MDCK-II

CYP1A2 [1] = target: T2, CYP1A2 (Homo sapiens, UniProt P05177); experiment: CYP enzyme inhibition in pooled human liver microsomes, CYP1A2; settings: for inhibition at 30 µM: human, microsomes, Enzyme activity (% inhibition), CYP1A2, probe Phenacetin
T2 sequence (P05177 1-516): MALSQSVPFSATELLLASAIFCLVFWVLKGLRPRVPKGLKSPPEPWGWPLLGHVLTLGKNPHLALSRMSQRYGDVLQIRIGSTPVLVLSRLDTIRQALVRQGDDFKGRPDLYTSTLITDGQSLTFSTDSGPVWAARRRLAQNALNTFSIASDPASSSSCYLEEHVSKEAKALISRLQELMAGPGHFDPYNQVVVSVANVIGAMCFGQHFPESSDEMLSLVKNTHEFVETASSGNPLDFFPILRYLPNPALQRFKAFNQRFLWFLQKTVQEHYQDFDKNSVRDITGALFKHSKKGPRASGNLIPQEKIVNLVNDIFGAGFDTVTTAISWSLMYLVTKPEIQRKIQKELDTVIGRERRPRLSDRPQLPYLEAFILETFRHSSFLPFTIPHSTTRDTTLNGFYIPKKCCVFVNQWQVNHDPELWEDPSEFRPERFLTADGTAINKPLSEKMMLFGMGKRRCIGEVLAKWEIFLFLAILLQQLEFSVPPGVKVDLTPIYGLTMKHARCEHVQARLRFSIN

CYP2B6 mRNA = experiment: CYP mRNA level (qRT-PCR) in cultured human hepatocytes, CYP2B6; settings: tested concentrations up to 50 nM
CYP2C19 = CYP2C19 (Homo sapiens, UniProt P33261); experiment: CYP enzyme inhibition in pooled human liver microsomes, CYP2C19; settings: for inhibition at 30 µM: human, microsomes, Enzyme activity (% inhibition), CYP2C19, probe S-Mephenytoin
[2] = tested on: Uveal melanoma cell lines, prostate cancer cells, acute leukemia cells, histocytic lymphoma cells; experiment: 3-day growth inhibition, all cell lines of Table 6; type: cell-based; settings: 3 days
CYP1A2 [3] = target: T2, CYP1A2; experiment: Depletion by recombinant CYP enzyme, CYP1A2; type: in vitro ADME; design: from tissue; host or cells: pooled human liver microsomes; settings: recombinant 1A2
SBC-5 cells = experiment: 10-day proliferation assay, negative control cells lacking BRG1 and BRM; settings: Homo sapiens, SBC-5, 240 h, read-out: mean IC50, cell proliferation
249 other ATPases = experiment: Additional profiling: binding to other ATPases in cells
CYP2C9 = CYP2C9 (Homo sapiens, UniProt P11712); experiment: Depletion by recombinant CYP enzyme, CYP2C9; type: in vitro ADME; design: from tissue; host or cells: pooled human liver microsomes; settings: recombinant 2C9
BCRP = target: T3, BCRP (Homo sapiens, UniProt Q9UNQ0); experiment: Transporter inhibition in MDCK-II cells, BCRP; type: in vitro ADME; settings: for IC50: probe prazosin 2 μM
T3 construct: expressed in transfected cells; host or cells: MDCK-II
T3 sequence (Q9UNQ0 1-655): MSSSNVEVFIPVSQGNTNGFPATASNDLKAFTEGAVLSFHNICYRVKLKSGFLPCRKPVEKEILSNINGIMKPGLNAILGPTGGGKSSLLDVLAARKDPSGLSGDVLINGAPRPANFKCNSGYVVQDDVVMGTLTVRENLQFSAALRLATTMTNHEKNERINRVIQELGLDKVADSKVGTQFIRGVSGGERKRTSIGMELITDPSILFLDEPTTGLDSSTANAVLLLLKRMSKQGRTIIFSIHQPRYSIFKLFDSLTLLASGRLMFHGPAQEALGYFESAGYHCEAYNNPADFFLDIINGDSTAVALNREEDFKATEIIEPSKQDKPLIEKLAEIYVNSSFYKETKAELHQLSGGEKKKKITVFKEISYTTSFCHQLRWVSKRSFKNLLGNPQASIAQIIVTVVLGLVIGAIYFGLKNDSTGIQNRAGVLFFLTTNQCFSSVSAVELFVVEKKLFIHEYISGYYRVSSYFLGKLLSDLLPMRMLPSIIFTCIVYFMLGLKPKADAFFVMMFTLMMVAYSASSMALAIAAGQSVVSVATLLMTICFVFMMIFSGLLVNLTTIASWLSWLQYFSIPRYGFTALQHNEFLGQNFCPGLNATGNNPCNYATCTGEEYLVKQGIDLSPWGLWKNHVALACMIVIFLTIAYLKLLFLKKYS

CYP2C19 mRNA = experiment: CYP mRNA level in cultured human hepatocytes, CYP2C19; type: in vitro ADME; settings: tested concentrations up to 50 nM
3A4/5 = experiment: Selective chemical inhibition of compound of formula (I) depletion in human liver microsomes, CYP3A4/5; settings: reaction phenotyping
CYP1a2 mRNA = experiment: CYP mRNA expression in cultured rat hepatocytes, CYP1a2; type: in vitro ADME; settings: 0.3 to 100 nM
[4] = Depletion in Control Bactosomes and Reductase Control; type: in vitro ADME
[5] = PHLM, concentrations up to 30 μM
[6] = human, pooled human liver microsomes, probe midazolam (1′-hydroxylation), 30 Minutes Pre-incubation with NADPH, probe Midazolam, PHLM
[7] = human, pooled human liver microsomes, probe midazolam (1′-hydroxylation), 30 Minutes Pre-incubation without NADPH, probe Midazolam, PHLM
[8] = human, pooled human liver microsomes, probe midazolam (1′-hydroxylation), No Pre-incubation, probe Midazolam, PHLM
[9] = human, pooled human liver microsomes, probe testosterone (6β-hydroxylation), 30 Minutes Pre-incubation with NADPH, probe Testosterone, PHLM
[10] = human, pooled human liver microsomes, probe testosterone (6β-hydroxylation), 30 Minutes Pre-incubation without NADPH, probe Testosterone, PHLM
[11] = human, pooled human liver microsomes, probe testosterone (6β-hydroxylation), No Pre-incubation, probe Testosterone, PHLM
[12] = FDA guidance 2020, human dose of 300 mg
[13] = 30 Minutes Pre-incubation with NADPH, PHLM
[14] = 30 Minutes Pre-incubation without NADPH, PHLM

T1 sequence (P08183 whole entry): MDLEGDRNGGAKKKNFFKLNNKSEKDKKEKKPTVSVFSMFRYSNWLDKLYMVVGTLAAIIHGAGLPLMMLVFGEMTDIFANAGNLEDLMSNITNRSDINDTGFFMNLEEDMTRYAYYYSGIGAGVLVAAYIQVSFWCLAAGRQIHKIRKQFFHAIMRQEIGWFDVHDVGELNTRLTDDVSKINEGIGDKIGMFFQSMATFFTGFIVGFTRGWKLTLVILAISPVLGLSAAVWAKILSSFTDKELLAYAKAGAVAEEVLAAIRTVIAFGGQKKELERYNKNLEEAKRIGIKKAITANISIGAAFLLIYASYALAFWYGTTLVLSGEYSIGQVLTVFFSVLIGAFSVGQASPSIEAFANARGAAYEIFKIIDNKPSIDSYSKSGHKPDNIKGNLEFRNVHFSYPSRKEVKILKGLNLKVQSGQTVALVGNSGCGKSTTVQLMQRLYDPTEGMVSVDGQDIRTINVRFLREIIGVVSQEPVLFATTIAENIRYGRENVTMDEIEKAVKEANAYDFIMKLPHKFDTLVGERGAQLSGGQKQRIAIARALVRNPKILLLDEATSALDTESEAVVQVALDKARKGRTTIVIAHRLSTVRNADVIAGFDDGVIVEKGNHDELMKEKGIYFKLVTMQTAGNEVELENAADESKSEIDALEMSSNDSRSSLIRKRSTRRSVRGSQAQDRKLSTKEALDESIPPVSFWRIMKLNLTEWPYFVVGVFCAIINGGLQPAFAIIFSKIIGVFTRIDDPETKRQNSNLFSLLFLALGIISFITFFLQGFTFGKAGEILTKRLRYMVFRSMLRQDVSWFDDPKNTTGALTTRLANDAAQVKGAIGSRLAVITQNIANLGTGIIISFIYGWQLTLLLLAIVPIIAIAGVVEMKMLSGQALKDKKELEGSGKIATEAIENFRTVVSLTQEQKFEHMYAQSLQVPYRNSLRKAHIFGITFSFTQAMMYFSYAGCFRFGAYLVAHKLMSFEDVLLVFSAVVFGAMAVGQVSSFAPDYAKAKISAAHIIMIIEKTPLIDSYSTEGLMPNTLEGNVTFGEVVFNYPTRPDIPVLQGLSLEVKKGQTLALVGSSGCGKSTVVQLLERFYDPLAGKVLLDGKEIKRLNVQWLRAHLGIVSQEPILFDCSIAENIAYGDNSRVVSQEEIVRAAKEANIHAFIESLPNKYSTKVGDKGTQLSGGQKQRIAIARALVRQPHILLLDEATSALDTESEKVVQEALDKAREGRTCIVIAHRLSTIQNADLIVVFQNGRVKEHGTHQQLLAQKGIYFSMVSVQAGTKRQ
Sequence of CYP2C19 (P33261 whole entry): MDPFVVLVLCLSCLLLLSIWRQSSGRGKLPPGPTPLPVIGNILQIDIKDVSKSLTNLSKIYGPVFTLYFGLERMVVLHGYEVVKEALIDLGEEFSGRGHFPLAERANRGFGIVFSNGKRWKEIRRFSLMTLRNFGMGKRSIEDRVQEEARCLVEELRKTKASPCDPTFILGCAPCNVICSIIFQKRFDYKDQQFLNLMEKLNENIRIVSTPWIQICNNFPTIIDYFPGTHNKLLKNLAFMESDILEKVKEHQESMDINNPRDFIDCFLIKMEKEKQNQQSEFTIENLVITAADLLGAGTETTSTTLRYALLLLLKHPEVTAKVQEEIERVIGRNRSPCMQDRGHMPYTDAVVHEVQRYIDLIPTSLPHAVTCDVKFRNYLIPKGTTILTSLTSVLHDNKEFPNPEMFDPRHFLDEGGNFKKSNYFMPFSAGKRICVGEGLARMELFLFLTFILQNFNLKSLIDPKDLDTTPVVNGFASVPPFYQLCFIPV
Sequence of CYP2C9 (P11712 whole entry): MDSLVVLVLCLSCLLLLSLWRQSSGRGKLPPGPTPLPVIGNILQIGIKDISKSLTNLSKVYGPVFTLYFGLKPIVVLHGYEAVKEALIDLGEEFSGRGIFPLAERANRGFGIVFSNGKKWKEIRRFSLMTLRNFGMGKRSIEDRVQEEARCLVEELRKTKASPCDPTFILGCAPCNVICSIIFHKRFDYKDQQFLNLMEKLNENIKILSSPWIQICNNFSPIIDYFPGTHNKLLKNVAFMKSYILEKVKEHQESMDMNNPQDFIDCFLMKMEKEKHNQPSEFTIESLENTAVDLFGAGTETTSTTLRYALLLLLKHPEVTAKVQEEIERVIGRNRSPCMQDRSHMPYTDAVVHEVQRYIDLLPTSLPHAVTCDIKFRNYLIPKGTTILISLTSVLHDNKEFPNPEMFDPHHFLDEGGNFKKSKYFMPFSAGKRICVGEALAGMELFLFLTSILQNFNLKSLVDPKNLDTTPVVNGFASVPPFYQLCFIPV

In the case of `COC[C@H](NC(=O)c1ccn(S(C)(=O)=O)c1)C(=O)Nc1nc(-c2cccc(N3C[C@@H](C)O[C@@H](C)C3)n2)cs1` [compound of formula (I), N-((S)-1-((4-(6-(cis-2,6-dimethylmorpholino)pyridin-2-yl)thiazol-2-yl)amino)-3-methoxy-1-oxopropan-2-yl)-1-(methylsulfonyl)-1H-pyrrole-3-carboxamide], the “time-dependent inhibition of CYP3A4/5” value (CYP3A4/5; PHLM) is reported as “weak time-dependent inhibitor”, the “direct inhibitory activity (% inhibition) toward CYP3A” value (CYP3A4/5; [5]) is reported as less than 50% and the IC50 (CYP3A4/5; human, pooled human liver microsomes) is reported as greater than 30 µM. The inhibition at 30 min, 10 µM (CYP3A4/5; human, pooled human liver microsomes, increase in CYP3A4/5 inhibition by preincubation, concentrations of ≤10 μM) was less than 20%, the inhibition at 10 µM (CYP3A4/5; [6]) was 25.3% and the inhibition at 30 µM (CYP3A4/5; [6]) was 40.2%. For the same compound, the inhibition at 10 µM (CYP3A4/5; [7]) was 6.5%, the inhibition at 30 µM (CYP3A4/5; [7]) was -1% and the inhibition at 10 µM (CYP3A4/5; [8]) was 18.2%. It also gave an inhibition at 30 µM (CYP3A4/5; [8]) of 13.6%, an inhibition at 10 µM (CYP3A4/5; [9]) of 27.4% and an inhibition at 30 µM (CYP3A4/5; [9]) of 49.3%. It also gave an inhibition at 10 µM (CYP3A4/5; [10]) of 10.5%, an inhibition at 30 µM (CYP3A4/5; [10]) of 20.8% and an inhibition at 10 µM (CYP3A4/5; [11]) of 9.7%. For the same compound, the inhibition at 30 µM (CYP3A4/5; [11]) was 18.4%, the “R-value for P-gp inhibition in the gut” value (P-gp; [12]) was greater than 10 and the IC50 (P-gp; P-gp in MDCK-II cells, read-out: Estimated IC50 using nominal concentrations) was 18.5 µM. For the same compound, the IC50 (P-gp; P-gp, corrected, read-out: IC50 corrected for non-specific binding) was 4.36 µM, the IC50 (CYP1A2 [1]) was greater than 30 µM and the “direct inhibitory activity (% inhibition) toward CYP1A2” value (CYP1A2 [1]; [5]) was less than 50%. The inhibition at 30 µM (CYP1A2 [1]; [13]) was 11.8%, the inhibition at 30 µM (CYP1A2 [1]; [14]) was 8.5% and the inhibition at 30 µM (CYP1A2 [1]; No Pre-incubation, PHLM) was 11.4%. For the same compound, the “effect on mRNA expression of CYP2B6” value (CYP2B6 mRNA) was “minimal effect”, the IC50 (CYP2C19) was greater than 30 µM and the “direct inhibitory activity (% inhibition) toward CYP2C19” value (CYP2C19; [5]) was less than 50%. It also gave an inhibition at 30 µM (CYP2C19; [13]) of 28.1%, an inhibition at 30 µM (CYP2C19; [14]) of 21.4% and an inhibition at 30 µM (CYP2C19; No Pre-incubation, PHLM) of 23.1%. The “growth inhibition in all the cell lines” value [2] was “potent growth inhibition”, the “% Remaining of Compound of Formula (I)” value (CYP1A2 [3]; 0.1 μM) was 89.4% and the “% Remaining of Compound of Formula (I)” value (CYP1A2 [3]; 1 μM) was 113%. For the same compound, the IC50 (SBC-5 cells) was greater than 25 µM, the “binding to 249 other ATPases in cells” value (249 other ATPases) was “little binding” and the “% Remaining of Compound of Formula (I)” value (CYP2C9; 0.1 μM) was 79.9%. The “% Remaining of Compound of Formula (I)” value (CYP2C9; 1 μM) was 100%, the IC50 (BCRP; BCRP in MDCK-II cells, read-out: Estimated IC50 using nominal concentrations) was 10.1 µM and the IC50 (BCRP; BCRP, corrected, read-out: IC50 corrected for non-specific binding) was 2.38 µM. The “R-value for BCRP inhibition in the gut” value (BCRP; [12]) was greater than 10, the “effect on mRNA expression of CYP2C19” value (CYP2C19 mRNA) was “minimal effect” and the “role of CYP3A in metabolism in human liver microsomes” value (3A4/5) was “major CYP enzyme responsible”. For the same compound, the “CYP1a2 mRNA expression decreased ≥50%” value (CYP1a2 mRNA) was “but not CYP1a2”, the “% Remaining of Compound of Formula (I)” value ([4]; Control Bactosomes, 0.1 μM) was 90.2% and the “% Remaining of Compound of Formula (I)” value ([4]; Control Bactosomes, 1 μM) was 98.3%. The “% Remaining of Compound of Formula (I)” value ([4]; Reductase Control, 0.1 μM) was 78.3% and the “% Remaining of Compound of Formula (I)” value ([4]; Reductase Control, 1 μM) was 109%.
